We go through 21 compounds from patent US7220773B2, “Pyrrole derivative” (Dainippon Sumitomo Pharma Co., Ltd., priority 2001, dated 2007).

Structures are written as SMILES.

One experiment concerns male db/db mice. The experiment in a line: Hypoglycemic activity in db/db mice, oral administration once a day for 2 weeks. Type of experiment: in vivo. To be noted: Mus musculus, po, 336 h, dosage 30 mg/kg orally once a day for 2 weeks in 0.5% carboxymethyl cellulose, male db/db mice (7 to 8 weeks old), versus vehicle on last day. The procedure:
The test compounds described in Examples (these compound were made into a free form from a salt form, a sodium salt or calcium salt, if necessary) were dissolved or suspended in 0.5% carboxymethyl cellulose solution. Mice were forced to orally administer the test compound as to administer the total amount of 30 mg/kg or 100 mg/kg to male db/db mice (7 to 8 weeks old) once a day for 2 weeks. On last day, to the blood just taken from tail vein was added perchloric acid to remove proteins and then the blood sugar was measure by glucose CII Test Waco (Wako Pure Chemical Ind.). Hypoglycemic activity was calculated as following formula: [formula] • A: Blood sugar level of Vehicle (on last day) • B: Blood sugar level of test compound-administered group (on last day)
The compound `C[C@H](Oc1cccc(/C=C/Cn2cccc2C(=O)c2ccc3c(c2)OCO3)c1)C(=O)O` [Example 92] gave an inhibition in vivo at 30 mg/kg of 46%.
With `CC(Oc1cccc(/C=C/Cn2cccc2C(=O)c2cccc(Oc3ccc(C(F)(F)F)cc3)c2)c1)C(=O)O` (stereo not drawn) [Example 155], the inhibition in vivo at 30 mg/kg is 57%.
`COc1cccc(C(=O)c2cccn2C/C=C/c2cccc(OC(C)C(=O)O)c2)c1` (stereo not drawn) [Example 63] displayed an inhibition in vivo at 30 mg/kg of 19%.
The same measure, in the same setting: as for `Cc1ccc(CC(=O)c2cccn2C/C=C/c2cccc(O[C@@H](C)C(=O)O)c2)cc1` [Example 191], the figure is 15%.
Take `COc1ccc(C(=O)c2cc(C)cn2C/C=C/c2cccc(O[C@@H](C)C(=O)O)c2)cc1` [Example 158]: the inhibition in vivo at 30 mg/kg worked out at 24%.
Compound `CC(Oc1cccc(/C=C/Cn2cccc2C(=O)c2ccc(C(F)(F)F)cc2)c1)C(=O)O` (stereo not drawn) [Example 143] returned an inhibition in vivo at 30 mg/kg of 21%.
As for `Cc1ccc(C(=O)c2cccn2C/C=C/c2cccc([C@H](C)C(=O)O)c2)cc1` [Example 111], the inhibition in vivo at 30 mg/kg was determined as 61%.
Compound `CCc1ccc(C(=O)c2cccn2C/C=C/c2cccc(O[C@@H](C)C(=O)O)c2)cc1` [Example 91] had an inhibition in vivo at 30 mg/kg of 55%.
Compound `Cc1ccc(C(=O)c2cccn2C/C=C/c2cccc([C@@H](C)C(=O)O)c2)cc1` [Example 110] gave an inhibition in vivo at 30 mg/kg of 17%.
Compound `CC(Oc1cccc(/C=C/Cn2cccc2C(=O)Nc2ccc(OC(F)(F)F)cc2)c1)C(=O)O` (stereo not drawn) [Example 179] gave an inhibition in vivo at 30 mg/kg of 22%.
On to `C[C@H](Oc1cccc(/C=C/Cn2cccc2C(=O)c2ccc3c(c2)CCO3)c1)C(=O)O` [Example 186], for which at 30 mg/kg the inhibition in vivo was 44%.
Still for that read-out and setting: the result for `Cc1ccc(C(=O)c2cccn2C/C=C/c2cccc(SC(C)C(=O)O)c2)cc1` (stereo not drawn) [Example 126] reads 56%.

The experiment is the same for the next values; noted with them: Mus musculus, po, 336 h, dosage 100 mg/kg orally once a day for 2 weeks in 0.5% carboxymethyl cellulose, male db/db mice (7 to 8 weeks old), versus vehicle on last day.
Consider `Cc1ccc(C(=O)c2cccn2C/C=C/c2cccc(O[C@H](C)C(=O)O)c2)cc1` [Example 139], for which the inhibition in vivo at 100 mg/kg stood at 55%.
In turn, `Cc1ccc(NC(=O)c2cccn2C/C=C/c2cccc(SCC(=O)O)c2)cc1` [Example 135] had an inhibition in vivo at 100 mg/kg of 16%.
For the compound `Cc1ccc(C(=O)c2ccn(C/C=C/c3cccc(SC(C)C(=O)O)c3)c2)cc1` (stereo not drawn) [Example 128], the inhibition in vivo at 100 mg/kg stood at 27%.
The same measure, in the same setting: as for `COc1ccccc1NC(=O)c1cccn1C/C=C/c1cccc(SCC(=O)O)c1` [Example 171], the figure is 20%; as for `O=C(O)COc1cccc(/C=C/Cn2cccc2C(=O)c2ccc(Cl)cc2)c1` [Example 53], 23%.
Same read-out and setting: as for `Cc1ccc(C(=O)c2cccn2C/C=C/c2cccc(O[C@@H](C)C(=O)O)c2)cc1` [Example 142], the figure is 55%.
On the same count and under the same terms, the result for `CCC(Cc1cccc(/C=C/Cn2cccc2C(=O)c2ccc(C)cc2)c1)C(=O)O` (stereo not drawn) [Example 165] reads 68%; that for `Cc1ccc(C(=O)c2cccn2C/C=C/c2cccc(C(C)(C)C(=O)O)c2)cc1` [Example 39], 65%.

The same experiment, now with this note: dosage 30 mg/kg orally once a day for 2 weeks in 0.5% carboxymethyl cellulose, male db/db mice (7 to 8 weeks old), versus vehicle on last day.
`Cc1ccc(CC(=O)c2cccn2C/C=C/c2cccc(O[C@@H](C)C(=O)O)c2)cc1` [Example 201]: the “Hypoglycemic activity(%)” value was determined as 18%.

By inhibition in vivo is commonly meant the percentage by which the read-out fell short of the control. High values mean strong suppression, low ones little suppression.
